Results: patent US20150335738A1 (priority 2012, published 2015)

Test system: human SIgA in faeces
Type: in vivo

SMILES: CC1=C(/C=C/C(C)=C/C=C/C(C)=C/C=C/C=C(C)/C=C/C=C(C)/C=C/C2=C(C)CCCC2(C)C)C(C)(C)CCC1 [Beta-carotene, beta-carotene]
- SIgA faeces, 3 days before exercise (3 days before exercise): 88 micrograms per 100 g faeces
- Recovery in faeces (Reference (before exercise) = 100%): 13%
- SIgA faeces, day 1 after exercise (day 1 after exercise): 8 micrograms per 100 g faeces
- SIgA faeces, day 6 after exercise (day 6 after exercise): 11 micrograms per 100 g faeces
